Measurements taken from patent US20260076937A1, “COMPOSITION FOR PREVENTING OR TREATING AUTOIMMUNE DISEASES COMPRISING A BCAT1 INHIBITOR” (Seoul National University R&DB Foundation, priority 2024, published 2026).
Entries after “also recorded” stand apart in the source; their conditions may differ. Read-outs that look alike come from different tables or passages of the source. Residues, ends and D or L forms follow the SMILES beside them. *: point of attachment. Cbz = O=C(OCc1ccccc1)*

Key:
[1] = system: TCR-stimulated human CD4+ T cells; test: 3H-leucine uptake assay; type: cell-based; settings: BCH 50 mM, JPH203 10 μM, LβhL 400 mg/L
Experimental: After the culture medium was removed, the cells were cultured in HBSS for 10 minutes. ^3H-leucine or ^3H-methionine (Perkin Elmer, Waltham, MA) uptake assays were initiated by culturing cells for 15 min in HBSS with 0.5-1 μCi. Cells were separated with 1 M NaOH after three washes with ice-cold HBSS. Radioactivity was measured using a beta scintillation counter MicroBeta® (Perkin Elmer).

HIF-1α [2] = test: HIF-1α immunoblot in TCR-stimulated CD4+ memory T cells; type: cell-based, human; settings: for HIF-1α expression reduced by Bi2 (effect of added substance): Bi2 plus HMB 0.4 mM, CoCl2, VH298 or MG132; for HIF-1α protein expression: TCR-stimulated CD4+ memory T cells, Bi2 10 μM, CoCl2 100 μM, VH298 100 μM, MG132 5 μM
Experimental: (§1) Cells were cultured in radioimmunoprecipitation assay (RIPA) buffer (150 mM NaCl, 10 mM Na2HPO4, pH 7.2, 1% Nonidet P-40, 0.5% deoxycholate) containing phenylmethylsulfonyl fluoride (PMSF; Millipore Sigma, Burlington, MA), EDTA, protease and phosphatase inhibitor cocktail (Thermo Fisher Scientific) to extract total protein. Proteins were separated on 8-10% SDS-polyacrylamide gels and blotted onto polyvinylidene difluoride (PVDF) membranes (Bio-Rad, Hercules, CA) followed by 5% BSA in Tris buffered saline (TBS) with 0.1% Tween 20 and blocked for 1 hour. Membranes were cultured overnight with anti-human SLC7A5, anti-BCAT, anti-phospho-p70S6K, anti-p70S6K, anti-HIF-1α (all provided by Cell Signaling Technology, Danvers, MA) primary antibodies at 4° C., followed by culture with HRP-conjugated secondary antibodies for 1 hour at room temperature. Membranes were developed using SuperSignal West Femto Maximum Sensitivity Substrate or SuperSignal West Pico PLUS Chemiluminescent Substrate system (Thermo Fisher Scientific).

HIF-1α [3] = test: RT-qPCR of HIF-1α and HIF-1α target genes in CD4+ memory T cells; type: cell-based, human; settings: HMB 0.4 mM
Experimental: Total RNA was prepared using TRIzol reagent (Life Technologies, Grand Island, NY), followed by cDNA synthesis (Promega, Madison, WI), followed by real-time quantitative RT-PCR with a CFX system (Bio-Rad, Hercules, CA) using SensiFAST SYBR® Lo-ROX (Bioline, London. UK). Gene expression levels were normalized for […] expression using the comparative CT method (ΔΔCT).

mTORC1 = test: Phospho-p70-S6K immunoblot (mTORC1 activity) in CD4+ memory T cells; type: cell-based, human; settings: HMB 0.4 mM, TCR stimulation 1 hour
Experimental: as §1

[4] = system: human CD4+ memory T cells; test: Cholesterol analysis in cell lysates; type: cell-based; settings: Bi2 10 μM plus HMB 0.4 mM
Experimental: Total cholesterol amount in cultured cells was determined using a fluorometric Amplex™ Red Cholesterol Assay Kit (Thermo Fisher Scientific) according to the manufacturer's instructions.

[5] = system: TCR-stimulated human CD4+ memory T cells; test: Cytokine ELISA of culture supernatants, CD4+ memory T cells; type: cell-based; settings: for IFN-γ production by CD4+ memory T cells / IL-17A production by CD4+ memory T cells: TCR stimulation 3 days, Bi2 10 μM, JPH203 10 μM, LβhL 400 mg/L; for IFN-γ production by CD4+ memory T cells: HMB 0.4 mM, VH298 100 nM; for IL-17A production by CD4+ memory T cells: statin 10 μM
Experimental: The study protocol was reviewed and approved by the Institutional Review Board (IRB) of Seoul National University Hospital. Peripheral blood was drawn from healthy controls (HC) after obtaining written consent from study participants, and all experiments were performed according to approved guidelines. Peripheral blood mononuclear cells (PBMCs) were isolated from peripheral blood using density gradient centrifugation (Biocoll separation solution; BIOCHROM Inc., Cambridge, UK). Total CD4^+ T cells, naive T cells and memory CD4^+ T-cells were isolated in a negative selection manner from CD14^+ monocyte depleted PBMCs using the MojoSort™ Human Total CD4^+ T-Cells, CD4^+ naive T-cells and CD4^+ memory T-cell isolation kit (BioLegend, San Diego, Calif.). Purified T cells were cultured in RPMI 1640 medium (hereinafter, “complete RPMI 1640”) supplemented with 10% fetal bovine serum (FBS), 1% penicillin/streptomycin, and 1% L-glutamine. Cells were stimulated with anti-CD3/CD28-coated microbeads (1:10 ratio, Dynabeads T-Activator CD3/CD28, Thermo Fisher Scientific, Waltham, MA) in the presence of designated chemical inhibitors or reagents including 2-amino-2-norbornanecarboxylic acid (BCH), JPH203, acetate, MG132, VH298, cobalt chloride (CoCl2), cycloheximid (CHX) (all provided by Sigma-Aldrich, St. Louis, MO), BCAT1 inhibitor 2 (Bi2: provided by Cayman Chemical, Ann Arbor, MI), 3-hydroxy-3-methylbutyric acid (HMB; provided by Thermo Fisher Scientific, Waltham, MA), and L-β-homoleucine (LβhL; provided by Santa Cruz Biotechnology, Heidelberg, Germany). In some experiments, a customized medium depleted of five essential amino acids (leucine, valine, isoleucine, phenylalanine, methionine) was used (Welgene, Gyeongsan, South Korea). All amino acids used (L-leucine, L-valine, L-isoleucine, L-phenylalanine, L-methionine) were purchased from Sigma-Aldrich.
IL-17A and IFN-γ amounts in culture supernatants were quantified using commercially available human ELISA kits (IL-17A ELISA kit by eBioscience and human IFN-γ ELISA MAX Deluxe by BioLegend) according to the manufacturer's instructions. Light density was measured using an Infinite M200 instrument (Tecan, Männedorf, Switzerland).

[6] = oral administration, healthy adults; cited from earlier work
[7] = system: TCR-stimulated human CD4+ naive T cells; test: Cytokine ELISA of culture supernatants, CD4+ naive T cells; type: cell-based; settings: TCR stimulation 3 days
[8] = system: human CD4+ naive and memory T cells; test: CFSE dilution proliferation assay; type: cell-based; settings: anti-CD3/CD28 microbeads; Bi2 10 μM, JPH203 10 μM, LβhL 400 mg/L
Experimental: To analyze T cell proliferative capacity, purified isolated human CD4+ T cells were labeled with 1 μM carboxyfluorescein succinimidyl ester (CFSE; Invitrogen, Waltham, MA, USA) and then stimulated with anti-CD3/CD28 antibody coated microbeads for 4 days at 37° C. Cells were stained with 7AAD (BD Biosciences) for 10 minutes to distinguish dead cells and the extent of CFSE dilution in 7AAD-cells was measured by BD LSRFortessa to analyze proliferative capacity. Antibodies listed in Table 2 and previously known BD LSRFortessa cell analyzers were used.

EAE mice = test: Experimental autoimmune encephalomyelitis (EAE) model; type: in vivo, mouse
[9] = Bi2 10 μM plus acetate, HMB or VH298, 3 days
[10] = Bi2 10 mg/kg or LβhL 1 g/kg i.p.

In the case of `NC1(C(=O)O)CC2CCC1C2` (centres unmarked) [BCH, 2-amino-2-norbornanecarboxylic acid], the 3H-leucine uptake [1] is reported as “greatly reduced”.

For `[Cl][Co][Cl]` [CoCl2, cobalt chloride], the “HIF-1α expression reduced by Bi2 (effect of added substance)” value (shortened to “HIF-1α expression reduced by Bi2”) (HIF-1α [2]) was “none of these inhibitors affected” and the HIF-1α protein expression (HIF-1α [2]) was “accumulation of HIF-1α”.

For `CC(C)(O)CC(=O)O` [HMB, 3-hydroxy-3-methylbutyric acid], the HIF-1α degradation rate (HIF-1α [2]; 24 h Bi2 pretreatment, cycloheximide chase, with or without HMB) was “did not affect”, the “HIF-1α expression reduced by Bi2” value (HIF-1α [2]) was “abrogates this attenuation; also recorded: reversed; also recorded: increased” and the “Bi2-reduced HIF-1α mRNA (effect of HMB supplementation)” value (HIF-1α [3]) was “rapidly abolished”. For the same compound, the “Bi2-reduced SCL2A1, LDHA and PGK1 mRNA (effect of HMB supplementation)” value (HIF-1α [3]; 72 hours of TCR stimulation) was “eliminated”, the “inhibition of mTORC1 activity by Bi2 (effect of HMB supplementation)” value (mTORC1) was “time dependently counteracted” and the “cholesterol in Bi2-treated cells (effect of HMB supplementation)” value [4] was “inhibited; also recorded: decreased”. For the same compound, the “IL-17A production in Bi2-treated CD4+ memory T cells (effect of added substance)” value (“IL-17A production … (effect of added substance)” for short) [5, 9] was “partially reversed; also recorded: resolved”, the “IFN-γ production by CD4+ memory T cells” value [5] was “not affected; also recorded: did not affect” and the plasma half-life [6] was “about 2.5 hours”. The plasma level achievable [6] was 400 µM and the “time to peak plasma level” value [6] was 60 to 120 min.

With `Nc1cc(COc2c(Cl)cc(C[C@H](N)C(=O)O)cc2Cl)c2oc(-c3ccccc3)nc2c1` [JPH203] the 3H-leucine uptake [1] was “greatly reduced”, the “IL-2 production by CD4+ naive T cells” value [7] was “not affected” and the “IFN-γ production by CD4+ memory T cells” value [5] was “decreased significantly”. For the same compound, the “IL-17A production by CD4+ memory T cells” value [5] was “decreased significantly” and the “proliferation (CFSE dilution)” value [8] was “completely blocked”.

For `CC(C)C[C@H](N)CC(=O)O` [LβhL, L-β-homoleucine], the 3H-leucine uptake [1] was “competitively inhibited”, the “CD4+ T-cells producing IL-17A in spinal cord infiltrates and draining LN” value (EAE mice; [10]) was “significantly reduced” and the “HIF-1α expression in CD4+ T-cells of spinal cord (intracellular staining)” value (EAE mice; [10]) was “decreased”. For the same compound, the “cell infiltration in spinal cord” value (EAE mice; [10]) was “significantly lower”, the “nerve damage, spinal cord histology” value (EAE mice; [10]) was “significantly lower” and the “EAE clinical score / severity” value (EAE mice; i.p. three times a week for 14 days, Bi2 10 mg/kg, LβhL 1 g/kg) was “attenuated; also recorded: improves EAE induction”. The “IL-17A production by CD4+ memory T cells” value [5] was “preferentially reduced; also recorded: attenuates” and the “proliferation (CFSE dilution)” value [8] was “did not affect”.

In the case of `CC(C)C[C@@H](C=O)NC(=O)[C@H](CC(C)C)NC(=O)[C@H](CC(C)C)NC(=O)OCc1ccccc1` [MG132] (Cbz-Leu-Leu-Leu-aldehyde), the “HIF-1α expression reduced by Bi2” value (HIF-1α [2]) is reported as “none of these inhibitors affected” and the HIF-1α protein expression (HIF-1α [2]) is reported as “accumulation of HIF-1α”.

With `Cc1ncsc1-c1ccc(CNC(=O)[C@@H]2C[C@@H](O)CN2C(=O)[C@@H](NC(=O)C2(C#N)CC2)C(C)(C)C)cc1` [VH298] the “HIF-1α expression reduced by Bi2” value (HIF-1α [2]) was “none of these inhibitors affected”, the HIF-1α protein expression (HIF-1α [2]) was “accumulation of HIF-1α” and the “IL-17A production … (effect of added substance)” value [5] was “restores; also recorded: fully restored”. The “IFN-γ production by CD4+ memory T cells” value [5] was “did not affect”.

With `CC(=O)O` [acetate] the “IL-17A production … (effect of added substance)” value [5, 9] was “dose-dependently reduced” and the “IFN-γ production in Bi2-treated CD4+ memory T cells (effect of added substance)” value ([5]; Bi2 10 μM plus acetate, 3 days) was “upregulated”.
